Measured values as given in patent US11584707B2, “Non-coordinating anion type activators containing cation having aryldiamine groups and uses thereof” (ExxonMobil Chemical Patents Inc., priority 2019, dated 2023).
Where “and” joins values, the source holds several entries; their conditions need not be identical. Identical values can stand only once.

What was measured:
[1] = Ethylene-octene copolymerization (RUN A) in parallel pressure reactor; settings: catalyst = 20 nmol, activator = 22 nmol, 1-octene = 100 μL, isohexane 5 mL, tri(n-octyl)aluminum = 500 nmol, T = 100° C., P = 100 PSI
Method: (§1) Unless stated otherwise, solutions of the metal complexes and activators were prepared in a drybox using toluene or methylcyclohexane. Concentrations were typically 0.2 mmol/L. Tri-n-octylaluminum (TNOAL, neat, AkzoNobel) was typically used as a scavenger. Concentration of the TNOAL solution in toluene was from 0.5 to 2 mmol/L.
(§2) Polymerizations were carried out in a parallel pressure reactor, as generally described in U.S. Pat. Nos. 6,306,658; 6,455,316; 6,489,168; WO 2000/009255; and Murphy, V. et al. (2003) “A Fully Integrated High-Throughput Screening Methodology for the Discovery of New Polyolefin Catalysts: Discovery of a New Class of High Temperature Single-Site Group (IV) Copolymerization Catalysts,” J. Am. Chem. Soc., v.125, pp. 4306-4317, each of which is incorporated by reference. The experiments were conducted in an inert atmosphere (N2) drybox using autoclaves equipped with an external heater for temperature control, glass inserts (internal volume of reactor=23.5 mL for C2 and C2/C8; 22.5 mL for C3 runs), septum inlets, regulated supply of nitrogen, ethylene and propylene, and equipped with disposable PEEK mechanical stirrers (800 RPM). The autoclaves were prepared by purging with dry nitrogen at 110° C. or 115° C. for 5 hours and then at 25° C. for 5 hours. Although the specific quantities, temperatures, solvents, reactants, reactant ratios, pressures, and other variables are frequently changed from one polymerization run to the next, the following describes a typical polymerization performed in a parallel pressure reactor.
(§3) RUN A: Ethylene-octene copolymerization (EO). A series of ethylene-octene polymerizations were performed in the parallel pressure reactor according to the procedure described above. In these studies rac-dimethylsilyl-bis(indenyl)hafnium dimethyl (MCN-1) was used along with ammonium borate activators. […] When sufficient polymer yield was attained (e.g., at least ˜10 mg), the polyethylene product was analyzed by Rapid GPC, described below.

[2] = Ethylene homopolymerization (RUN B) in parallel pressure reactor; settings: catalyst = 20 nmol, activator = 22 nmol, isohexane 5 mL, tri(n-octyl)aluminum = 500 nmol, T = 100° C., P = 100 PSI
Method: as §1, §2
as §3, with “B: Ethylene homopolymerization (PE).” for “A: Ethylene-octene copolymerization (EO).”, “ethylene” for “ethylene-octene”

Compound | activity [1] | activity [2]
CCCCCCCCCCCCCCCCCCN(C)c1cccc2c([NH+](C)CCCCCCCCCCCCCCCCCC)cccc12.Fc1c(F)c(F)c2c(F)c([B-](c3c(F)c(F)c4c(F)c(F)c(F)c(F)c4c3F)(c3c(F)c(F)c4c(F)c(F)c(F)c(F)c4c3F)c3c(F)c(F)c4c(F)c(F)c(F)c(F)c4c3F)c(F)c(F)c2c1F [DANH-BF28] | 466 kg/mmol/h and 445 kg/mmol/h and 421 kg/mmol/h and 397 kg/mmol/h | 388 kg/mmol/h and 364 kg/mmol/h and 478 kg/mmol/h and 416 kg/mmol/h
CCCCCCCCCCCCCCCCCCN(C)c1cccc2c([NH+](C)CCCCCCCCCCCCCCCCCC)cccc12.Fc1c(F)c(F)c([B-](c2c(F)c(F)c(F)c(F)c2F)(c2c(F)c(F)c(F)c(F)c2F)c2c(F)c(F)c(F)c(F)c2F)c(F)c1F [DANH-BF20] | 545 kg/mmol/h and 661 kg/mmol/h and 448 kg/mmol/h and 492 kg/mmol/h | 406 kg/mmol/h and 410 kg/mmol/h and 442 kg/mmol/h and 454 kg/mmol/h
N,N-Dimethylanilinium tetrakis(pentafluorophenyl)borate [DMAH-BF20, reference compound] | 526 kg/mmol/h and 359 kg/mmol/h and 668 kg/mmol/h and 689 kg/mmol/h | 366 kg/mmol/h and 380 kg/mmol/h and 516 kg/mmol/h and 454 kg/mmol/h
